Laboratory results reported in PMC7367925, “The EU-ToxRisk method documentation, data processing and chemical testing pipeline for the regulatory use of new approach methods” (Archives of Toxicology, 2020).

What was measured:
[1] = tested on: U-2 OS reporter cell lines battery; assay: CALUX reporter gene assay battery as a whole; settings: all CALUX assays, 13 concentrations, 24 h exposure
[2] = tested on: AP1 pathway activation / cell cycle control; assay: AP-1 CALUX; format: cell-based, human; settings: 24 h exposure, lowest effect level PC10, means from 3 assay runs
Experimental: (§1) After 24 h, exposure medium was prepared. […] All samples were tested in triplicates. […] Fig. SM_4. […] Fig. SM_4.
(§2) Supplementary Material SM_4
(§3) Overview of CALUX assays.
(§4) This is defined as the concentration of test compound […]
(§5) for an antagonist assay is a PC20.
(§6) PC = positive control. FI = fold induction. PC10: concentration where test compound causes an activation equal to 10% of the maximum effect (positive control). PC20: concentration where test compound causes […]
(§7) FI=1.5: concentration where test
(§8) (A) exemplary graph of concentration- […]
(§9) receptor antagonism assay with PC20 as lowest-effect-level. (C) exemplary graph for assay with 1.5 fold inductionas lowest effect level. 9

[3] = design: method as in Sommar et al. 2000; settings: KAW < 0.03 considered non-volatile; ref Sommar et al. 2000; cited from earlier work
[4] = tested on: U-2 OS cells; assay: Cytotox CALUX; settings: 24 h exposure, lowest effect level PC20, means from 3 assay runs
[5] = tested on: Nrf2 (Oxidative stress); assay: Nrf2 CALUX; format: cell-based, human; settings: 24 h exposure, lowest effect level FI=1.5, means from 3 assay runs
Experimental: as §1, §2, §3, §4, §5, §6, §7, §8, §9

[6] = tested on: p53-dependent pathway activation / genotoxicity; format: cell-based, human; settings: 24 h exposure, lowest effect level FI=1.5, means from 3 assay runs
Experimental: as §1, §2, §3, §4, §5, §6, §7, §8, §9

[7] = molecular target: T1, Progesterone receptor (Homo sapiens, UniProt P06401); assay: PR-anti CALUX; format: cell-based; settings: 24 h exposure, lowest effect level PC20, reference agonist at EC50, means from 3 assay runs
T1 construct: host or cells: U-2 OS
T1 sequence (P06401 1-933): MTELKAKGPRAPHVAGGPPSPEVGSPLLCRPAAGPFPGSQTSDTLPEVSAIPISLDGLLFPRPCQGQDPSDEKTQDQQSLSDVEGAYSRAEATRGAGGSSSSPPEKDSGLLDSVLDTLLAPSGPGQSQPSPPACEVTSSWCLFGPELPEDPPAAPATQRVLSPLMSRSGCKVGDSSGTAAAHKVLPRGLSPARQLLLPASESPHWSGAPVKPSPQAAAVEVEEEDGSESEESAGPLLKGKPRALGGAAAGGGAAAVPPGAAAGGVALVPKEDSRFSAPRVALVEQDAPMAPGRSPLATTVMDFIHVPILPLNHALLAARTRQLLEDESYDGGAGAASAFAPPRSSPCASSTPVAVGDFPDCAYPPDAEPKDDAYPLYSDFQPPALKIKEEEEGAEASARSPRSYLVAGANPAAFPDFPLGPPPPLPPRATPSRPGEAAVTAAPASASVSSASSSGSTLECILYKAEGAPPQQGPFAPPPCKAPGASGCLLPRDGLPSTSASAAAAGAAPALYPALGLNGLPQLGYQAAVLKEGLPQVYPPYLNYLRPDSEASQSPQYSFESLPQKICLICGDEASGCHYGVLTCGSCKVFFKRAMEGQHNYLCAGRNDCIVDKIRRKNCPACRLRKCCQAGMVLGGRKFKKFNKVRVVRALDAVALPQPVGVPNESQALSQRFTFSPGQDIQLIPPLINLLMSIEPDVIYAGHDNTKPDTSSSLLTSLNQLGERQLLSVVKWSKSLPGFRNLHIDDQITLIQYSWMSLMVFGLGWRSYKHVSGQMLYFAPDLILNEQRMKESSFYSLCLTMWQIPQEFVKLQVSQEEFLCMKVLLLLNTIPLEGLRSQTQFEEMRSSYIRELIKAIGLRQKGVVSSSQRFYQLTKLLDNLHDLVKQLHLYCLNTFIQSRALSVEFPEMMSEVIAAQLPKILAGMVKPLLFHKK
Experimental: as §1, §2, §3, §4, §5, §6, §7, §8, §9

[8] = molecular target: T2, Estrogen receptor alpha (Homo sapiens, UniProt P03372); format: cell-based; settings: 24 h exposure, lowest effect level PC10, means from 3 assay runs
T2 construct: host or cells: U-2 OS
T2 sequence (P03372 whole entry): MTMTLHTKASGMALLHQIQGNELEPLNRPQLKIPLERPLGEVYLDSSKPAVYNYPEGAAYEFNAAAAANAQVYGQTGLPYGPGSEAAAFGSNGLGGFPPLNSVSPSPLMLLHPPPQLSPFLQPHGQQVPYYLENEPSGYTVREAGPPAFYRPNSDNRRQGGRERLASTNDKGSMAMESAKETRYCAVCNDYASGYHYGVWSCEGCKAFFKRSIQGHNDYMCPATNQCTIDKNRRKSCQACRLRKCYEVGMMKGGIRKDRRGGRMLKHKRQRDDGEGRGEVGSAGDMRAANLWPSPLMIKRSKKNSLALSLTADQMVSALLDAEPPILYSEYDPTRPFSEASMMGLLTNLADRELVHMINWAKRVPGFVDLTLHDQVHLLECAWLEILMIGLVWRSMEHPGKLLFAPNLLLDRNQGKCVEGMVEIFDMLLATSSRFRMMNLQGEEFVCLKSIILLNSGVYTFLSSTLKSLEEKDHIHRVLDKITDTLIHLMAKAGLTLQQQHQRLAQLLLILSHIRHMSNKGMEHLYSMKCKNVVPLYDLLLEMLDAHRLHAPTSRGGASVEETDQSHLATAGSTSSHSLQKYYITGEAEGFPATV
Experimental: as §1, §2, §3, §4, §5, §6, §7, §8, §9

[9] = molecular target: T3, Glucocorticoid receptor (Homo sapiens, UniProt P04150); format: cell-based; settings: 24 h exposure, lowest effect level PC20, reference agonist at EC50, means from 3 assay runs
T3 construct: host or cells: U-2 OS
T3 sequence (P04150 1-777): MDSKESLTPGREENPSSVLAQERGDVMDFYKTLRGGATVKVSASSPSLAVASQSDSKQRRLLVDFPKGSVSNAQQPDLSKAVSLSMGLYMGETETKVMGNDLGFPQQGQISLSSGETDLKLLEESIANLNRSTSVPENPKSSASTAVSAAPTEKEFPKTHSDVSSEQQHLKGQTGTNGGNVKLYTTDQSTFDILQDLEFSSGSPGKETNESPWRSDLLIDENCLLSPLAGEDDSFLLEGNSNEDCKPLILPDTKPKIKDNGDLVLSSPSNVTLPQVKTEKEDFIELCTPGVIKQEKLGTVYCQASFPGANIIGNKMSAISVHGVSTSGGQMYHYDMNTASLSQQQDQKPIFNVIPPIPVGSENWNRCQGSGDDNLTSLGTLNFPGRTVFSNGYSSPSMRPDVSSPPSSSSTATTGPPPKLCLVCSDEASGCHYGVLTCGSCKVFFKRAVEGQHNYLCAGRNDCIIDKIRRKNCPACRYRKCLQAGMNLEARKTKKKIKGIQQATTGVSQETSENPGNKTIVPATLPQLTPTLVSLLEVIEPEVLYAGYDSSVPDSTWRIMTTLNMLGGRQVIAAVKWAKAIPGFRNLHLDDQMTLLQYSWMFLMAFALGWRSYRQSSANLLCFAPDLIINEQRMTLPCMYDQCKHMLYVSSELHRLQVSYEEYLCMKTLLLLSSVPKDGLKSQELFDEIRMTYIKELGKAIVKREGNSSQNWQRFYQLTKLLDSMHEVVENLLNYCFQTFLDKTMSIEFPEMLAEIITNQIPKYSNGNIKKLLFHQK
Experimental: as §1, §2, §3, §4, §5, §6, §7, §8, §9

[10] = molecular target: T4, Aryl Hydrocarbon receptor (Rattus norvegicus, UniProt P41738); assay: DR CALUX / AhR CALUX (rat hepatoma H-4-II-E cells); format: cell-based; settings: 24 h exposure, lowest effect level PC10, means from 3 assay runs
T4 construct: host or cells: rat hepatoma H-4-II-E (ATCC CRL-1548)
T4 sequence (P41738 10-853): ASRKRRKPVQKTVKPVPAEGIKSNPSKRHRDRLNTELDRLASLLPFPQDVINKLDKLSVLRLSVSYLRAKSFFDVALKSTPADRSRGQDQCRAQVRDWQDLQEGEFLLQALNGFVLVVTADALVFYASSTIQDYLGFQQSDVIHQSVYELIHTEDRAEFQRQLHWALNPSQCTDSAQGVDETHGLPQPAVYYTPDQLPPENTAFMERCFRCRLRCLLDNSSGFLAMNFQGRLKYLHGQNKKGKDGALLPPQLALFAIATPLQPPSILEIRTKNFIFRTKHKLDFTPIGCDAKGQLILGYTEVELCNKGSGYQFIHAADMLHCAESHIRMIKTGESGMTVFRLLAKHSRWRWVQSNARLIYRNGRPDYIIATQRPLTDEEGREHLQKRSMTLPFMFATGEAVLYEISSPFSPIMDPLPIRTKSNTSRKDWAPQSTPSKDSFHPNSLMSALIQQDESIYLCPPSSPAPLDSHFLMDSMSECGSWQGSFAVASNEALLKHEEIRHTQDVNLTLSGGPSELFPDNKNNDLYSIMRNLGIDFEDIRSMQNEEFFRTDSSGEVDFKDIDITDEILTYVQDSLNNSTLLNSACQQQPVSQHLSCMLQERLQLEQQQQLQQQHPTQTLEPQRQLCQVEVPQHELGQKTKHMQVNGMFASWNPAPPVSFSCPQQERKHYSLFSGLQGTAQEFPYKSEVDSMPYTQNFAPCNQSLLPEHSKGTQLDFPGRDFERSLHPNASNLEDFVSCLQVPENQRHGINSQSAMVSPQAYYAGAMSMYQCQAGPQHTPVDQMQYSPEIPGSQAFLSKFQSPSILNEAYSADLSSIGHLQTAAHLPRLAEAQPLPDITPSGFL

[11] = molecular target: T5, Pregnane X receptor (Homo sapiens, UniProt O75469); assay: PXR CALUX; format: cell-based; settings: 24 h exposure, lowest effect level PC10, means from 3 assay runs
T5 construct: host or cells: U-2 OS
T5 sequence (O75469 1-434): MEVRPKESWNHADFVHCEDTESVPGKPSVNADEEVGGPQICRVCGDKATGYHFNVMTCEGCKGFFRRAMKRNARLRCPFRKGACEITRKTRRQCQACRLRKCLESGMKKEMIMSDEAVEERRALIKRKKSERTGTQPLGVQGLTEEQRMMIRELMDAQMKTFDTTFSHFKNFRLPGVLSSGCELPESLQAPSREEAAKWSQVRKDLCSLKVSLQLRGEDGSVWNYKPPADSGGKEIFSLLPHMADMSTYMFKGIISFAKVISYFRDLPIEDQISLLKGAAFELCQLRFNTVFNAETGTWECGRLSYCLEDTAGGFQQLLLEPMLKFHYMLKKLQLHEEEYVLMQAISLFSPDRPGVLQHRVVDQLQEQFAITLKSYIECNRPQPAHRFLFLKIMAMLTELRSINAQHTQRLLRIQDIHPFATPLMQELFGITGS
Experimental: as §1, §2, §3, §4, §5, §6, §7, §8, §9

Compound	response profile over the CALUX battery (in words) [1]	PoD AP1 [2]	air-water partition coefficient KAW [3]	PoD cytotoxicity [4]	PoD Nrf2 [5]	PoD p53 [6]	PoD PR - anta [7]	PoD Erα - ago [8]	PoD GR - anta [9]	PoD AhR - ago [10]	PoD PXR - ago [11]
[Cl][Hg][Cl] [Mercury chloride]	only activated stress pathway related assays	5.8 -log(M)	0.02	4.7 -log(M)	5.5 -log(M)	5.7 -log(M)	–	–	–	–	–
O=P(Oc1ccccc1)(Oc1ccccc1)Oc1ccccc1 [Triphenyl phosphate]	only activated nuclear hormone receptor related assays	–	–	4.0 -log(M)	–	–	5.2 -log(M)	5.4 -log(M)	4.8 -log(M)	4.2 -log(M)	6.1 -log(M)
